The subject of data set [1] is mice subjected to normobaric hypoxia. The experiment in a line: Effects on survival time of mice subjected to normobaric hypoxia. The format is in vivo, mouse (ddY strain; male). The following applies: 50 mg/kg oral, 2 h before; 96% nitrogen/4% oxygen; protected = alive 10 or more minutes. The protocol:
Mice (ddY strain; male; body weight 20-22 g) were used as test animals. Each group consisted of 10 or more mice. A test compound (50 mg/kg) was orally administered to each mouse.
Then each animal was put into a glass cylinder (capacity: 700 ml) and a mixture of nitrogen (96%) and oxygen (4%) was passed through the cylinder at a velocity of 5 1 /min and expelled through a hole in the side wall. The time from the start of the gas mixture supply to the cessation of respiratory motion was measured, and animals which remained alive for 10 or more minutes were evaluated as "protected". Among 50 untreated animals, no animal remained alive. In use, the test compound was suspended in an aqueous solution of carboxymethylcellulose sodium (0.3%).

A short description of data set [2]: Test for acute toxicity (LD50, oral, 7 days). As to conditions: mouse, in vivo, mice, deaths within 7 days, 5 mice per group. As to the method: Mice (ddY strain; male; body weight 21-23 g) were used as test animals. Each group consisted of 5 mice. The test compound was orally administered to each mouse. During the test period of 7 days after the administration, the number of deaths in each group was counted to calculate the LD50. All animals were bred in a breeding room, maintained at a temperature of 23°±2° C. and a humidity of 55-60%. These animals were given a solid feed "F-2" (commercial product of Funabashi Nojo) and city water ad libitum.

Data set [3] has as its system mice subjected to hypobaric hypoxia. The data set can be described thus: Effects on survival time of mice subjected to hypobaric hypoxia. The following applies: 30 mg/kg oral, 2 h before; 150 mmHg; mean ± S.E.; *P < 0.05, **P < 0.001 vs control. Type of data set: in vivo, mouse (ddY strain; male). The protocol: Mice (ddY strain; male; body weight 20-22 g) were used as test animals. Each group consisted of 10 or more mice. A test compound (30 mg/kg) was orally administered to each mouse. Two hours after the administration, each animal was put into a desiccator (capacity: 9 l), and the inside pressure of the desiccator was reduced to 150 mmHg over a period of 52-55 seconds. The time from the start of the pressure reduction to the cessation of respiratory motion was measured. Survival time of the compound-administered group and that of the control group were compared by t-test.

The test system of data set [4] is mice subjected to anaemic hypoxia. The data set can be described thus: Effects on survival time of mice subjected to anaemic hypoxia (NaNO2). The format is in vivo, mouse (ddY strain; male). The following applies: 30 mg/kg oral, 2 h before; NaNO2 225 mg/kg s.c.; mean ± S.E.; *P < 0.05, **P < 0.001 vs control. The protocol:
(Hypoxia induced by NaNO2 administration to convert haemoglobin to methemoglobin)
Mice (ddY strain; male; body weight 20-22 g) were used as test animals. Each group consisted of 10 or more mice. A test compound (30 mg/kg) was orally administered to each mouse. Two hours after the administration, NaNO2 (225 mg/kg) was subcutaneously administered to each mouse. The time from the NaNO2 administration to death was measured. Survival time of the compound-administered group and that of the control group were compared by t-test.

Data set [5] concerns decapitated heads of mice. The experiment in a line: Effect on time of gasping persistence by decapitated heads of mice. As to conditions: 30 mg/kg oral, 2 h before decapitation; mean ± S.E.; **P < 0.001 vs control. Type of data set: in vivo, mouse (ddY strain; male). The protocol:
Mice (ddY strain; male; body weight 20-22 g) were used as test animals. Each group consisted of 10 or more mice. A test compound (30 mg/kg) was orally administered to each mouse. Two hours after the administration, each animal was decapitated, and the time from the decapitation to the cessation of gasping was measured. Time of gasping persistence of the treated group and that of the control group were compared by t-test.

The subject of data set [6] is cerebral ischaemia or cerebral hypoxia. As to conditions: cited from literature; cited from earlier work.
The nature of data set [7]: Acute toxicity (general statements, comparison with nizofenone). The following applies: in vivo, po; per os; species and method not stated at this place.
The conditions of data set [8]: cited from literature / background; cited from earlier work.

Results on 20 compounds are retold here after patent US4962107A, “Agent for cerebral protection” (Kyowa Hakko Kogyo Kabushiki Kaisha, priority 1985, dated 1990).

Structures are written as SMILES.

For `O=C(C=Cc1ccc(C(F)(F)F)cc1)N1CCS(=O)(=O)CC1` [Compound 13, 4-(4-trifluoromethylcinnamoyl) thiomorpholine-1,1-dioxide], in data set [1], the “A/B (number of animals surviving / number of animals tested)” value is reported as 6/10.

Consider `CC1CCCCN1C(=O)C=Cc1ccc(Cl)cc1` (stereo not drawn) [Compound 3, 2-Methyl-1-(4-chlorocinnamoyl) piperidine], for which the LD50 at 168 h in data set [2] is > 1010 mg/kg. For the same compound, the “A/B (number of animals surviving / number of animals tested)” value in data set [1] was 9/10. In addition, the “Survival Time” value in data set [3] was 172.4 ± 11.3 s; in data set [4] it was 47.7 ± 5.5 min. In addition, the “Persistence Time (gasping)” value in data set [5] turned out to be 30.2 ± 1.1 s.

For the compound `O=C(C=Cc1ccc(Cl)cc1)N1CCCCC1` [Compound 14, 1(4-chlorocinnamoyl) piperidine], the LD50 at 168 h in data set [2] was > 1010 mg/kg. The “A/B (number of animals surviving / number of animals tested)” value in data set [1] was 4/10.

On to `CC1CCCCN1C(=O)C=Cc1ccc(C(F)(F)F)cc1` (stereo not drawn) [Compound 1, 2-methyl-1-(4-trifluoromethylcinnamoyl) piperidine], for which the LD50 at 168 h in data set [2] is > 1010 mg/kg. Also, in data set [1], the “A/B (number of animals surviving / number of animals tested)” value was 10/10. Also, the “Survival Time” value in data set [3] stood at 582.8 ± 12.1 s; in data set [4] it was 64.9 ± 5.5 min. Also, the “Persistence Time (gasping)” value in data set [5] was 39.1 ± 1.4 s.

Take `O=C(C=Cc1ccc(C(F)(F)F)cc1)N1CC[S+]([O-])CC1` [Compound 12, 4-(4-trifluoromethylcinnamoyl) thiomorpholine-1-oxide]: in data set [1], the “A/B (number of animals surviving / number of animals tested)” value was 8/10.

With `CCCC(C)C1(CC)C(=O)NC(=O)NC1=O` (stereo not drawn) [pentobarbital], the “cerebral protective effect (literature)” value in data set [6] is “have a cerebral protective activity”.

Regarding `O=C(C=Cc1ccc(C(F)(F)F)cc1)N1CCSCC1` [Compound 11, 4-(4-Trifluoromethylcinnamoyl) thiomorpholine], in data set [1], the “A/B (number of animals surviving / number of animals tested)” value was 7/10.

Turning to `O=C(C=Cc1ccc(C(F)(F)F)cc1)N1CCC(O)CC1` [Compound 10, 4-Hydroxy-1-(4-trifluoromethylcinnamoyl) piperidine], in data set [1], the “A/B (number of animals surviving / number of animals tested)” value is listed as 2/10.

On to `CC1CCCC(C)N1C(=O)C=Cc1ccc(C(F)(F)F)cc1` (stereo not drawn) [Compound 5, 2,6-Dimethyl-1-(4-trifluoromethylcinnamoyl) piperidine], for which the 50% lethal dose (LD50) at 168 h in data set [2] was > 1010 mg/kg. Besides, the “A/B (number of animals surviving / number of animals tested)” value in data set [1] is 15/20.

As to `O=C(C=Cc1ccc(F)cc1)N1CCOCC1` [Compound 6, 4-(4-Fluorocinnamoyl) morpholine], the LD50 at 168 h in data set [2] was > 1010 mg/kg. Also, in data set [1], the “A/B (number of animals surviving / number of animals tested)” value is on record as 2/10.

On to `O=C(C=Cc1ccc(C(F)(F)F)cc1)N1CCCCC1CO` (stereo not drawn) [Compound 9, 2-Hydroxymethyl-1-(4-trifluoromethylcinnamoyl) piperidine], for which, in data set [1], the “A/B (number of animals surviving / number of animals tested)” value is 2/10.

On to `O=C(C=Cc1ccc(Cl)cc1)N1CCOCC1` [Compound 16, 4(4-chlorocinnamoyl) morpholine], for which the LD50 at 168 h in data set [2] lay within 675 to 1010 mg/kg. The “A/B (number of animals surviving / number of animals tested)” value in data set [1] is on record as 5/10.

Take `CCCC(C)C1(CC)C(=O)NC(=S)NC1=O` (stereo not drawn) [thiopental]: the “cerebral protective effect (literature)” value in data set [6] is reported as “have a cerebral protective activity”.

With `CC1COCCN1C(=O)C=Cc1ccc(C(F)(F)F)cc1` (stereo not drawn) [Compound 2, 3-methyl-4-(4-trifluoromethylcinnamoyl) morpholine], the LD50 at 168 h in data set [2] lay within 675 to 1010 mg/kg. Further, in data set [1], the “A/B (number of animals surviving / number of animals tested)” value is reported as 8/10.

Regarding `CC1CCCCN1C(=O)C=Cc1ccc(F)cc1` (stereo not drawn) [Compound 4, 2-Methyl-1-(4-fluorocinnamoyl) piperidine], the LD50 at 168 h in data set [2] was > 1010 mg/kg. In addition, in data set [1], the “A/B (number of animals surviving / number of animals tested)” value is given as 7/20. Besides, the results for the “Survival Time” value in data set [3] and in data set [4] were 126.3 ± 6.9 s and 58.4 ± 5.5 min, respectively. For the same compound, in data set [5], the “Persistence Time (gasping)” value was found to be 23.5 ± 0.8 s.

For `CC1CCN(C(=O)C=Cc2ccc(C(F)(F)F)cc2)CC1` [Compound 8, 4-Methyl-1-(4-trifluoromethylcinnamoyl) piperidine], the LD50 at 168 h in data set [2] is > 1010 mg/kg. In addition, the “A/B (number of animals surviving / number of animals tested)” value in data set [1] is 5/20.

In the case of `CCC1(c2ccccc2)C(=O)NC(=O)N(C)C1=O` (stereo not drawn) [mephobarbital], the “cerebral protective effect (literature)” value in data set [6] was “have a cerebral protective activity”.

Take `O=C(C=Cc1ccc(Cl)c(Cl)c1)N1CCOCC1` [Compound 15, 4(3,4-dichlorocinnamoyl) morpholine]: the LD50 at 168 h in data set [2] lay in the range of 450 to 675 mg/kg. Moreover, the “A/B (number of animals surviving / number of animals tested)” value in data set [1] was 5/10.

As to `CCN(CC)Cc1nccn1-c1ccc([N+](=O)[O-])cc1C(=O)c1ccccc1Cl.O=C(O)/C=C/C(=O)O` [nizofenone, 1-[2-(2-chlorobenzoyl)-4-nitrophenyl]-2-(diethylaminomethyl)imidazole fumarate], in data set [7], the LD50 is 450 to 675 mg/kg. Besides, in data set [6], the “cerebral protective effect (literature)” value is listed as “has a cerebral protective effect against cerebral ischaemia or cerebral hypoxia, similar to that of barbiturates”. Moreover, the “anesthetic or respiration-suppressing action, side effects (literature)” value in data set [8] is on record as “does not exhibit an anesthetic or respiration-suppressing action”.

`O=C(C=Cc1ccc(C(F)(F)F)cc1)N1CCOCC1` [Compound 7, 4-(4-Trifluoromethylcinnamoyl) morpholine] returned an LD50 at 168 h in data set [2] of 300 to 450 mg/kg. Also, the “A/B (number of animals surviving / number of animals tested)” value in data set [1] is recorded as 4/10.
